Literature values in PubChem BioAssay AID1259409 (Chemical Carcinogenesis Research Information System (CCRIS), 2018).
Where “and” joins values, the source holds several entries; their conditions need not be identical. Equal values may be shown once.

System: rodent chemically induced tumor inhibition, incidence and multiplicity
Experiment: CCRIS tumor inhibitor studies

## C=C1/C(=C\C=C2/CCC[C@]3(C)[C@@H]([C@H](C)CCCC(C)(C)O)CC[C@@H]23)C[C@@H](O)C[C@@H]1O
Carcinogen: 7,12-DIMETHYLBENZ[A]ANTHRACENE, 57-97-6, Dose [Inhibitor]: 0.125 NMOL 2/WK STARTING 1 WK AFTER CARCINOGEN TREATMENT AND CONTINUING FOR 9 WK (STUDY DURATION: 10 WK), Route [Inhibitor]: DERMAL, Species: MOUSE, Strain/Sex: CD-1/FEMALE, Target Tissue: Type of Lesion: SKIN: PAPILLOMA, Dose [Carcinogen]: 20 NMOL ONCE, Promoter: 12-O-TETRADECANOYLPHORBOL-13-ACETATE, 16561-29-8
  tumour outcome (control, treated, inhibition, significance): 77%, 37%, 52%, p<0.05
Carcinogen: 7,12-DIMETHYLBENZ[A]ANTHRACENE, 57-97-6, Dose [Inhibitor]: 0.125 NMOL 2/WK STARTING 1 WK AFTER CARCINOGEN TREATMENT AND CONTINUING FOR 12 WK (STUDY DURATION: 13 WK), Route [Inhibitor]: DERMAL, Species: MOUSE, Strain/Sex: CD-1/FEMALE, Target Tissue: Type of Lesion: SKIN: PAPILLOMA, Dose [Carcinogen]: 20 NMOL ONCE, Promoter: 12-O-TETRADECANOYLPHORBOL-13-ACETATE, 16561-29-8
  tumour outcome (control, treated, inhibition, significance): 96%, 70%, 27%, p<0.05
Carcinogen: 7,12-DIMETHYLBENZ[A]ANTHRACENE, 57-97-6, Dose [Inhibitor]: 0.25 NMOL 2/WK STARTING 1 WK AFTER CARCINOGEN TREATMENT AND CONTINUING FOR 9 WK (STUDY DURATION: 10 WK), Route [Inhibitor]: DERMAL, Species: MOUSE, Strain/Sex: CD-1/FEMALE, Target Tissue: Type of Lesion: SKIN: PAPILLOMA, Dose [Carcinogen]: 20 NMOL ONCE, Promoter: 12-O-TETRADECANOYLPHORBOL-13-ACETATE, 16561-29-8
  tumour outcome (control, treated, inhibition, significance): 77%, 33%, 57%, p<0.05
Carcinogen: 7,12-DIMETHYLBENZ[A]ANTHRACENE, 57-97-6, Dose [Inhibitor]: 0.25 NMOL 2/WK STARTING 1 WK AFTER CARCINOGEN TREATMENT AND CONTINUING FOR 12 WK (STUDY DURATION: 13 WK), Route [Inhibitor]: DERMAL, Species: MOUSE, Strain/Sex: CD-1/FEMALE, Target Tissue: Type of Lesion: SKIN: PAPILLOMA, Dose [Carcinogen]: 20 NMOL ONCE, Promoter: 12-O-TETRADECANOYLPHORBOL-13-ACETATE, 16561-29-8
  tumour outcome (control, treated, inhibition, significance): 96%, 70%, 27%, p<0.05
Carcinogen: 7,12-DIMETHYLBENZ[A]ANTHRACENE, 57-97-6, Dose [Inhibitor]: 0.5 NMOL 2/WK STARTING 1 WK AFTER CARCINOGEN TREATMENT AND CONTINUING FOR 12 WK (STUDY DURATION: 13 WK), Route [Inhibitor]: DERMAL, Species: MOUSE, Strain/Sex: CD-1/FEMALE, Target Tissue: Type of Lesion: SKIN: PAPILLOMA, Dose [Carcinogen]: 20 NMOL ONCE, Promoter: 12-O-TETRADECANOYLPHORBOL-13-ACETATE, 16561-29-8
  tumour outcome (control, treated, inhibition, significance): 83%, 43%, 48%, p<0.05 and 96%, 59%, 39%, p<0.05
Carcinogen: 7,12-DIMETHYLBENZ[A]ANTHRACENE, 57-97-6, Dose [Inhibitor]: 0.5 NMOL 2/WK STARTING 1 WK AFTER CARCINOGEN TREATMENT AND CONTINUING FOR 15 WK (STUDY DURATION: 16 WK), Route [Inhibitor]: DERMAL, Species: MOUSE, Strain/Sex: CD-1/FEMALE, Target Tissue: Type of Lesion: SKIN: PAPILLOMA, Dose [Carcinogen]: 20 NMOL ONCE, Promoter: 12-O-TETRADECANOYLPHORBOL-13-ACETATE, 16561-29-8
  tumour outcome (control, treated, inhibition, significance): 88%, 59%, 33%, p<0.05 and 92%, 77%, 16%, not significant
Carcinogen: 7,12-DIMETHYLBENZ[A]ANTHRACENE, 57-97-6, Dose [Inhibitor]: 2 NMOL 2/WK STARTING 1 WK AFTER CARCINOGEN TREATMENT AND CONTINUING FOR 9 WK (STUDY DURATION: 10 WK), Route [Inhibitor]: DERMAL, Species: MOUSE, Strain/Sex: CD-1/FEMALE, Target Tissue: Type of Lesion: SKIN: PAPILLOMA, Dose [Carcinogen]: 20 NMOL ONCE, Promoter: 12-O-TETRADECANOYLPHORBOL-13-ACETATE, 16561-29-8
  tumour outcome (control, treated, inhibition, significance): 47%, 4%, 91%, p<0.05
Carcinogen: 7,12-DIMETHYLBENZ[A]ANTHRACENE, 57-97-6, Dose [Inhibitor]: 2 NMOL 2/WK STARTING 1 WK AFTER CARCINOGEN TREATMENT AND CONTINUING FOR 12 WK (STUDY DURATION: 13 WK), Route [Inhibitor]: DERMAL, Species: MOUSE, Strain/Sex: CD-1/FEMALE, Target Tissue: Type of Lesion: SKIN: PAPILLOMA, Dose [Carcinogen]: 20 NMOL ONCE, Promoter: 12-O-TETRADECANOYLPHORBOL-13-ACETATE, 16561-29-8
  tumour outcome (control, treated, inhibition, significance): 83%, 12%, 86%, p<0.05
Carcinogen: 7,12-DIMETHYLBENZ[A]ANTHRACENE, 57-97-6, Dose [Inhibitor]: 2 NMOL 2/WK STARTING 1 WK AFTER CARCINOGEN TREATMENT AND CONTINUING FOR 15 WK (STUDY DURATION: 16 WK), Route [Inhibitor]: DERMAL, Species: MOUSE, Strain/Sex: CD-1/FEMALE, Target Tissue: Type of Lesion: SKIN: PAPILLOMA, Dose [Carcinogen]: 20 NMOL ONCE, Promoter: 12-O-TETRADECANOYLPHORBOL-13-ACETATE, 16561-29-8
  tumour outcome (control, treated, inhibition, significance): 88%, 18%, 80%, p<0.05
Carcinogen: N-METHYL-N-NITROSOUREA [684-93-5], Dose [Inhibitor]: 0, 0.8 ML OF 10 µM ETHANOL SOLUTION ADMINISTERED IN NORMAL SALINE VIA CATHETER 1X/WK FOR 7 WK BEGINNING 3 WK POST CARCIN, Route [Inhibitor]: INTRAVESICAL, Species: RAT, Strain/Sex: F344/FEMALE, Target Tissue: Type of Lesion: URINARY BLADDER: TUMOR, Dose [Carcinogen]: ONCE/2 WK FOR 6 WK (STUDY DURATION: 31 WK; DOSE NOT REPORTED), Promoter: NONE
  tumour outcome (control, treated, inhibition, significance): 6/9 (67%), 5/9 (56%), 16%, not significant
